As a reminder, the MIC is the lowest concentration that inhibits growth of the organism.

Experimental findings from US11180504B2 (ORCHID PHARMA LTD., priority 2016, dated 2021) are described below.

Values after ≈ are worked out from the molar mass of the structure shown. Like-named read-outs stand apart in the source and are kept apart here.

The subject of assay [1] is carbapenem sensitive Escherichia coli. The assay can be described thus: MIC by broth micro-dilution (CLSI), carbapenem sensitive E. coli. The format is cell-based. (Broth dilution looks for growth in wells or tubes with falling amounts of substance.)
Assay [2] relates to carbapenem sensitive Pseudomonas aeruginosa. In words: MIC by broth micro-dilution (CLSI), carbapenem sensitive P. aeruginosa. The format is cell-based.
For assay [3], the system named is carbapenemase producing K. pneumoniae. In words: MIC by broth micro-dilution (CLSI), carbapenemase producing K. pneumoniae. The format is cell-based, Klebsiella pneumoniae.
Assay [4] concerns methicillin-sensitive Staphylococcus aureus. In words: MIC by broth micro-dilution (CLSI), methicillin-sensitive S. aureus. The class given is cell-based. The note with it: MSSA S. aureus ATCC29213.
The mark [5] stands for this setting: Escherichia coli, ATCC25922, ESBL −ve E. coli ATCC25922, read-out: MIC.
The mark [6] stands for this setting: Pseudomonas aeruginosa, ATCC27853, Meropenem susceptible P. aeruginosa ATCC27853, read-out: MIC.
[7] abbreviates: Klebsiella pneumoniae, ATCCBAA1705, KPC-2 K. pneumoniae ATCC BAA-1705, read-out: MIC.
[8] abbreviates: Staphylococcus aureus, ATCC 29213 / MSSA, read-out: MIC.
Where [9] appears, read: Meropenem susceptible P. aeruginosa ATCC27853.
The mark [10] stands for this setting: KPC-2 K. pneumoniae ATCC BAA-1705.

On to `C[C@@H](NC(=O)Cn1nnnc1N(C)C)[C@H]1C(=O)N2C(C(=O)O)=C(S[C@@H]3CN[C@H](C(=O)N(C)C)C3)[C@H](C)[C@H]12` [Example 383, (4R,5S,6R)-6-((R)-1-(2-(5-(dimethylamino)-1H-tetrazol-1-yl)acetamido)ethyl)-3-((3S,5S)-5-(dimethylcarbamoyl)pyrrolidin-3-ylthio)-4-methyl-7-oxo-1-azabicyclo[3.2.0]hept-2-ene-2-carboxylic acid], for which the MIC in assay [1] (setting [5]) is 0.25 µg/mL (≈ 0.467 µM); in assay [2] (setting [6]) it was more than 128 µg/mL; in assay [3] (setting [7]), 4 µg/mL (≈ 7.47 µM); in assay [4] (setting [8]), 4 µg/mL (≈ 7.47 µM).
`C[C@@H](NC(=O)Cn1cnnn1)[C@H]1C(=O)N2C(C(=O)O)=C(S[C@@H]3CN[C@H](C(=O)N4C[C@@H](O)[C@@H](N)C4)C3)[C@H](C)[C@H]12` [Example 431, (4R,5S,6R)-6-((R)-1-(2-(1H-tetrazol-1-yl)acetamido)ethyl)-3-((3S,5S)-5-((3S,4R)-3-amino-4-hydroxypyrrolidine-1-carbonyl)pyrrolidin-3-ylthio)-4-methyl-7-oxo-1-azabicyclo[3.2.0]hept-2-ene-2-carboxylic acid]: the MIC in assay [1] (setting [5]) amounted to 0.25 µg/mL (≈ 0.455 µM); in assay [2] (setting [6]), 1 µg/mL (≈ 1.82 µM); in assay [3] (setting [7]), 0.5 µg/mL (≈ 0.91 µM); in assay [4] (setting [8]), 2 µg/mL (≈ 3.64 µM).
The corresponding values for `C[C@@H](NC(=O)Cn1cnnn1)[C@H]1C(=O)N2C(C(=O)O)=C(S[C@@H]3CN[C@H](C(=O)N4CCCN(C(=N)N)CC4)C3)[C@H](C)[C@H]12` [Example 517, (4R,5S,6R)-6-((R)-1-(2-(1H-tetrazol-1-yl)acetamido)ethyl)-3-((3S,5S)-5-(4-carbamimidoyl-1,4-diazepane-1-carbonyl)pyrrolidin-3-ylthio)-4-methyl-7-oxo-1-azabocyclo[3.2.0]hept-2-ene-2-carboxylic acid] are 0.5 µg/mL (≈ 0.848 µM), 4 µg/mL (≈ 6.78 µM), 2 µg/mL (≈ 3.39 µM) and 4 µg/mL (≈ 6.78 µM).
The corresponding values for `C[C@@H](NC(=O)Cn1cnnn1)[C@H]1C(=O)N2C(C(=O)O)=C(S[C@@H]3CN[C@H](C(=O)N4CC5(CC(N)CO5)C4)C3)[C@H](C)[C@H]12` (single isomer, unassigned) [Example 530] are 0.25 µg/mL (≈ 0.434 µM), 0.5 µg/mL (≈ 0.869 µM), 1 µg/mL (≈ 1.74 µM) and 2 µg/mL (≈ 3.47 µM).
The corresponding values for `C[C@@H](NC(=O)/C(=N\OC(C)(C)C(=O)O)c1csc(N)n1)[C@H]1C(=O)N2C(C(=O)O)=C(S[C@@H]3CN[C@H](C(=O)N4CC[C@@H](N)C4)C3)[C@H](C)[C@H]12` [Example 514, (4R,5S,6R)-3-((3S,5S)-5-((R)-3-aminopyrrolidine-1-carbonyl)pyrrolidin-3-ylthio)-6-((R)-1-((Z)-2-(2-aminothiazol-4-yl)-2-(2-carboxypropan-2-yloxyimino)acetamido)ethyl)-4-methyl-7-oxo-1-azabicyclo[3.2.0]hept-2-ene-2-carboxylic acid] are 0.5 µg/mL (≈ 0.737 µM), 32 µg/mL (≈ 47.1 µM), 16 µg/mL (≈ 23.6 µM) and 16 µg/mL (≈ 23.6 µM).
Consider `C[C@@H](NC(=O)Cn1cnnn1)[C@H]1C(=O)N2C(C(=O)O)=C(S[C@@H]3CN[C@H](C(=O)N4C[C@H](N)C[C@H]4C(=O)O)C3)[C@H](C)[C@H]12` [Example 453, (4R,5S,6R)-6-((R)-1-(2-(1H-tetrazol-1-yl)acetamido)ethyl)-3-((3S,5S)-5-((2S,4R)-4-amino-2-carboxypyrrolidine-1-carbonyl)pyrrolidin-3-ylthio)-4-methyl-7-oxo-1-azabicyclo[3.2.0]hept-2-ene-2-carboxylic acid], for which the MIC was 0.125 µg/mL (≈ 0.216 µM) in assay [1] (setting [5]), 8 µg/mL (≈ 13.8 µM) in assay [2] (setting [6]), 2 µg/mL (≈ 3.46 µM) in assay [3] (setting [7]) and 16 µg/mL (≈ 27.7 µM) in assay [4] (setting [8]).
Regarding `C[C@@H](NC(=O)Cn1cnnn1)[C@H]1C(=O)N2C(C(=O)O)=C(S[C@@H]3CN[C@H](C(=O)N4CCC5(CCNC5)C4)C3)[C@H](C)[C@H]12` (single isomer, unassigned) [Example 488], the minimal inhibitory concentration (MIC) in assay [1] (setting [5]) stood at 0.25 µg/mL (≈ 0.436 µM); in assay [2] (setting [9]), 2 µg/mL (≈ 3.49 µM); in assay [3] (setting [7]) it was 1 µg/mL (≈ 1.74 µM); in assay [4] (setting [8]) it was 4 µg/mL (≈ 6.97 µM).
Turning to `C[C@@H](NC(=O)Cn1nc(C(F)(F)F)nc1N)[C@H]1C(=O)N2C(C(=O)O)=C(S[C@@H]3CN[C@H](C(=O)N(C)C)C3)[C@H](C)[C@H]12` [Example 320, (4R,5S,6R)-6-((R) - 1-(2-(5-amino-3-(trifluoromethyl) - 1H-1,2,4-triazol-1-yl)acetamido)ethyl)-3-((3S,5S)-5-(dimethylcarbamoyl)pyrrolidin-3-ylthio)-4-methyl-7-oxo-1-azabiayclo[3.2.0]hept-2-ene-2-carboxylic acid], the minimal inhibitory concentration (MIC) came out at 1 µg/mL (≈ 1.74 µM) in assay [1] (setting [5]), 128 µg/mL (≈ 223 µM) in assay [2] (setting [6]), 4 µg/mL (≈ 6.96 µM) in assay [3] (setting [7]) and 2 µg/mL (≈ 3.48 µM) in assay [4] (setting [8]).
Consider `C[C@@H](NC(=O)Cn1cnnn1)[C@H]1C(=O)N2C(C(=O)O)=C(S[C@@H]3CN[C@H](C(=O)N4CC5C[C@@H]6C[C@]5(CN6)C4)C3)[C@H](C)[C@H]12` (stereo partly drawn) [Example 564, (4R,5S,6R)-6-((R)-1-(2-(1H-tetrazol-1-yl)acetamido)ethyl)-3-((3S,5S)-5-((1S,7R)-3,8-Diaza-tricyclo[5.2.1.01,5]decane-3-carbonyl)-pyrrolidin-3-ylthio)-4-methyl-7-oxo-1-azabicyclo[3.2.0]hept-2-ene-2-carbnxylic acid], for which the minimal inhibitory concentration (MIC) in assay [1] (setting [5]) was determined as 0.125 µg/mL (≈ 0.213 µM); in assay [2] (setting [6]), 1 µg/mL (≈ 1.71 µM); in assay [3] (setting [7]) it was 1 µg/mL (≈ 1.71 µM); in assay [4] (setting [8]), 2 µg/mL (≈ 3.41 µM).
Turning to `C[C@@H](NC(=O)C(N)C(F)(F)F)[C@H]1C(=O)N2C(C(=O)O)=C(S[C@@H]3CN[C@H](C(=O)N(C)C)C3)[C@H](C)[C@H]12` (stereo partly drawn) [Example 389, (4R,5S,6R)-6-((1R)-(2-amino-3,3,3-trifluoropropanamido)ethyl)-3-((3S,5S)-5-(dimethylcarbamoyl)pyrrolidin-3-ylthio)-4-methyl-7-oxo-1-azabicyclo[3.2.0]hept-2-ene-2-carboxylic acid], the minimum inhibitory concentration (MIC) in assay [1] (ESBL −ve E. coli ATCC25922) was 1 µg/mL (≈ 1.97 µM); in assay [2] (setting [9]), more than 128 µg/mL; in assay [3] (setting [10]), 4 µg/mL (≈ 7.88 µM); in assay [4], 8 µg/mL (≈ 15.8 µM).
With `C[C@@H](NC(=O)Cn1cnnn1)[C@H]1C(=O)N2C(C(=O)O)=C(S[C@@H]3CN[C@H](C(=O)N4CCC(F)(CN)CC4)C3)[C@H](C)[C@H]12` [Example 346, (4R,5S,6R)-6-((R) - 1-(2-(1H-tetrazol-1-yl)acetamido)ethyl)-3-((3S,5S)-5-(4-(aminomethyl)-4-fluoropiperidine-1-carbonyl)pyrrolidin-3-ylthio)-4-methyl-7-oxo-1-azabicyclo[3.2.0]hept-2-ene-2-carboxylic acid], the minimal inhibitory concentration (MIC) in assay [1] (setting [5]) was 1 µg/mL (≈ 1.73 µM); in assay [2] (setting [6]), 16 µg/mL (≈ 27.6 µM); in assay [3] (setting [7]), 8 µg/mL (≈ 13.8 µM); in assay [4] (setting [8]), 16 µg/mL (≈ 27.6 µM).
With `CO/N=C(\C(=O)N[C@H](C)[C@H]1C(=O)N2C(C(=O)O)=C(S[C@@H]3CN[C@H](C(=O)N(C)C)C3)[C@H](C)[C@H]12)c1csc(N)n1` [Example 325, (4R,5S,6R)-6-((R) - 1-((Z)-2-(2-aminothiazol-4-yl)-2-(methoxyimino)acetamido)ethyl)-3-((3S,5S)-5-(dimethylcarbamoyl)pyrrolidin-3-ylthio)-4-methyl-7-oxo-1-azabicyclo[3.2.0]hept-2-ene-2-carboxylic acid], the minimal inhibitory concentration (MIC) in assay [1] (setting [5]) was 4 µg/mL (≈ 7.07 µM); in assay [2] (setting [6]), more than 128 µg/mL; in assay [3] (setting [7]), 64 µg/mL (≈ 113 µM); in assay [4] (setting [8]), 8 µg/mL (≈ 14.1 µM).
The corresponding values for `C[C@@H](NC(=O)Cn1cnnn1)[C@H]1C(=O)N2C(C(=O)O)=C(S[C@@H]3CN[C@H](C(=O)N4CCC5(CC4)CC(F)(F)CN5)C3)[C@H](C)[C@H]12` [Example 351, (4R,5S,6R)-6-((R)-1-(2-(1H-tetrazol-1-yl)acetamido)ethyl)-3-((3S,5S)-5-(3,3-difluoro-1,8-diazaspiro[4.5]decane-8-carbonyl)pyrrolidin-3-ylthio)-4-methyl-7-oxo-1-azabicyclo[3.2.0]hept-2-ene-2-carboxylic acid] are 1 µg/mL (≈ 1.6 µM), more than 128 µg/mL, 4 µg/mL (≈ 6.41 µM) and 16 µg/mL (≈ 25.7 µM).
The corresponding values for `C[C@@H](NC(=O)Cn1cnnn1)[C@H]1C(=O)N2C(C(=O)O)=C(S[C@@H]3CN[C@H](C(=O)N4CC5CCNCC5(CO)C4)C3)[C@H](C)[C@H]12` (single isomer, unassigned) [Example 539] are 0.25 µg/mL (≈ 0.414 µM), 2 µg/mL (≈ 3.31 µM), 1 µg/mL (≈ 1.66 µM) and 4 µg/mL (≈ 6.63 µM).
With `C[C@@H](NC(=O)Cn1cnnn1)[C@H]1C(=O)N2C(C(=O)O)=C(S[C@@H]3CN[C@H](C(=N)N4CC[C@@H](N)C4)C3)[C@H](C)[C@H]12` [Example 550], the MIC came to 0.25 µg/mL (≈ 0.469 µM) in assay [1] (setting [5]); 8 µg/mL (≈ 15 µM) in assay [2] (setting [6]); 2 µg/mL (≈ 3.75 µM) in assay [3] (setting [7]); 1 µg/mL (≈ 1.88 µM) in assay [4] (Staphylococcus aureus, ATCC29213|MSSA, read-out: MIC).
For `C[C@@H](NC(=O)Cn1cnnn1)[C@H]1C(=O)N2C(C(=O)O)=C(S[C@@H]3CN[C@H](C(=O)N4CC(N)C(F)C4)C3)[C@H](C)[C@H]12` (single isomer, unassigned) [Example 479], the MIC in assay [1] (ESBL −ve E. coli ATCC25922) came out at 0.25 µg/mL (≈ 0.453 µM); in assay [2] (setting [9]), 16 µg/mL (≈ 29 µM); in assay [3] (setting [10]), 2 µg/mL (≈ 3.63 µM); in assay [4], 8 µg/mL (≈ 14.5 µM).
